≈ marks a conversion by molar mass, not a printed value.

22 molecules from ChEMBL document CHEMBL4270497, “Recent advances (2015-2016) in anticancer hybrids” (Eur J Med Chem, 2017) can be followed below.

The subject of test [1] is A549. Briefly: Cytotoxicity in human A549 cells assessed a reduction in cell viability incubated for 48 hrs by MTT assay. Type of test: functional, cell-based. The note with it: A549, 48 h.
For test [2], the system named is Panel NCI-60 (60 carcinoma cell lines). Briefly: Growth inhibition of human NCI60 cells incubated for 48 hrs by SRB assay. The class given is functional.
The subject of the next test is A498. Briefly: Growth inhibition of human A498 cells at 10 uM. The class given is functional. The note with it: read-out: GI.
Another test relates to MDA-MB-231. Briefly: Growth inhibition of human MDA-MB-231 cells at 10 uM. The class given is functional. The note with it: read-out: GI.
For test [3], the system named is HT-29. Briefly: Cytotoxicity in human HT-29 cells assessed as reduction in cell viability incubated for 48 hrs by MTT assay. The class given is functional, cell-based. Particulars: HT-29, 48 h.
In another test the test system is PC-3. Briefly: Cytotoxicity in human PC3 cells assessed as reduction in cell viability incubated for 48 hrs by MTT assay. The class given is functional, cell-based. Particulars: PC-3, 48 h.
Test [4] concerns A549. Briefly: Cytotoxicity in human A549 cells assessed as reduction in cell viability incubated for 48 hrs by MTT assay. Type of test: functional, cell-based. Particulars: A549, 48 h.
The next test concerns U-87 MG. Briefly: Cytotoxicity in human U87MG cells assessed as reduction in cell viability incubated for 48 hrs by MTT assay. Type of test: functional, cell-based, U-87MG ATCC.
Another test deals with KB. Briefly: Cytotoxicity in human KB cells assessed as reduction in cell viability. Type of test: functional, cell-based.
Test [5] has as its target Epidermal growth factor receptor (Homo sapiens, UniProt P00533). Briefly: Inhibition of 6x-His-tagged human EGFR cytoplasmic domain (645 to 1186 amino acids) assessed as reduction in autophosphorylation pre-incubated for 10 mins and measured after 1 hr by DELFIA/time-resolved fluorometry.
A further test deals with B16-F10. Briefly: Antiproliferative activity against mouse B16F10 cells incubated for 48 hrs by MTT assay. The note with it: B16-F10, 48 h. Type of test: functional, cell-based.
Test [6] concerns HeLa. Briefly: Antiproliferative activity against human HeLa cells incubated for 48 hrs by MTT assay. Type of test: functional, cell-based.
Test [7] deals with MCF7. Briefly: Antiproliferative activity against human MCF7 cells incubated for 48 hrs by MTT assay. The class given is functional, cell-based. The note with it: MCF7, 48 h.
Test [8] concerns HT-29. Briefly: Antiproliferative activity against human HT-29 cells incubated for 48 hrs by MTT assay. The class given is functional, cell-based. The note with it: HT-29, 48 h.
A further test concerns DU-145. Briefly: Antiproliferative activity against human DU145 cells incubated for 48 hrs by MTT assay. The class given is functional, cell-based. Particulars: DU-145, 48 h.
Test [9] relates to A549. Briefly: Antiproliferative activity against human A549 cells incubated for 48 hrs by MTT assay. The note with it: A549, 48 h. Type of test: functional, cell-based.
The subject of the next test is HEK293. Briefly: Antiproliferative activity against HEK293 cells incubated for 48 hrs by MTT assay. Type of test: cell-based. The note with it: Homo sapiens, HEK293, 48 h.
The test system of another test is HCT-116. Briefly: Antiproliferative activity against human HCT116 cells incubated for 48 hrs by MTT assay. The class given is functional, cell-based. The note with it: HCT-116, 48 h.
Test [10] has as its system MCF7. Briefly: Antiproliferative activity against human MCF7 cells incubated for 24 hrs by MTT assay. The class given is functional, cell-based. The note with it: MCF7, 24 h.
Test [11] deals with A549. Briefly: Antiproliferative activity against human A549 cells incubated for 24 hrs by MTT assay. The class given is functional, cell-based. Particulars: A549, 24 h.
The subject of test [12] is HeLa. Briefly: Antiproliferative activity against human HeLa cells incubated for 24 hrs by MTT assay. Type of test: functional, cell-based.
Test [13] relates to MCF7. Briefly: Anticancer activity against human MCF7 cells assessed as reduction in cell viability incubated for 48 hrs by MTT assay. Type of test: functional, cell-based. The note with it: MCF7, 48 h.
A further test relates to HL-60. Briefly: Anticancer activity against human HL60 cells assessed as reduction in cell viability incubated for 48 hrs by MTT assay. The class given is functional, cell-based. The note with it: HL-60, 48 h.

Chain of Epidermal growth factor receptor (P00533 whole entry, the tested form may be a part): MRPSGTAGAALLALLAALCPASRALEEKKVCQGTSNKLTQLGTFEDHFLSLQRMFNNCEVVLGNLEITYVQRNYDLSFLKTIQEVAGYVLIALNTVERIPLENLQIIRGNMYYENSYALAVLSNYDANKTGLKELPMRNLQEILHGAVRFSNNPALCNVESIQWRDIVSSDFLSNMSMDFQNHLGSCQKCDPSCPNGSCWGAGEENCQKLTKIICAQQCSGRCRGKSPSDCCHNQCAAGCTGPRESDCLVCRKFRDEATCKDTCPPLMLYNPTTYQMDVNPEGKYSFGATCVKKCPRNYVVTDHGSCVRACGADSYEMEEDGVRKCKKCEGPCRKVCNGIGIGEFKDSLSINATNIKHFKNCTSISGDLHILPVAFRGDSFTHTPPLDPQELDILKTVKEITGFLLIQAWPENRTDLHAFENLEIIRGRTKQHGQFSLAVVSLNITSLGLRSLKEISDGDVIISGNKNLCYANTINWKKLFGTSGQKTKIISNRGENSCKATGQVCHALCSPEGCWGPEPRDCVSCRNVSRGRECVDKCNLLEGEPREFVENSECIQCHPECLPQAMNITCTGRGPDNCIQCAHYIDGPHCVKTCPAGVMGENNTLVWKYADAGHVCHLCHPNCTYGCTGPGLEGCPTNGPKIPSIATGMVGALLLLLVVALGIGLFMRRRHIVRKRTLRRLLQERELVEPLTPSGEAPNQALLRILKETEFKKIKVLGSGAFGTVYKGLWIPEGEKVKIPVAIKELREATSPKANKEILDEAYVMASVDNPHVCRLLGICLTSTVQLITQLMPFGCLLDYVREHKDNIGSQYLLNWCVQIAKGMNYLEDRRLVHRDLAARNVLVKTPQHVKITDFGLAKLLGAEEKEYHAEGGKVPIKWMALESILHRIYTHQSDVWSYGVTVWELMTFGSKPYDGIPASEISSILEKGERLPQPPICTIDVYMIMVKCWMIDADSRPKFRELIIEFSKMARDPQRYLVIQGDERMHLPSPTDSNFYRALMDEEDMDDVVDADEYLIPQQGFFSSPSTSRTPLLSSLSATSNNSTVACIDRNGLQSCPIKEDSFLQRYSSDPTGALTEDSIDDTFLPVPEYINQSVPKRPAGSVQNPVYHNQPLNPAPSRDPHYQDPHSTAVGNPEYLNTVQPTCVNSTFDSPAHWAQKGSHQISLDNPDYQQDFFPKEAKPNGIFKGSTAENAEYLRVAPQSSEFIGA

For `COc1ccc(C(=O)/C=C/c2cc3c([nH]c4ccccc43)c(-c3ccc(OC)c(OC)c3)n2)cc1`, the IC50 in the test with A549 [1] was < 10000 nM.

As for `O=C(/C=C/c1cc2c([nH]c3ccccc32)c(-c2ccc(F)cc2)n1)c1ccc(F)cc1`, the 50% inhibitory concentration (IC50) in the test with A549 [1] was < 10000 nM.

`COc1ccc(-c2nc(/C=C/C(=O)c3ccc([N+](=O)[O-])cc3)cc3c2[nH]c2ccccc23)cc1OC`: in the test on A549 [1], the IC50 was < 10000 nM.

As for `COc1ccc(-c2nc(/C=C/C(=O)c3ccc(F)cc3)cc3c2[nH]c2ccccc23)cc1OC`, the IC50 in the test on A549 [1] is < 10000 nM.

As for `COc1ccc(-c2nc(/C=C/C(=O)c3cc(OC)c(OC)c(OC)c3)cc3c2[nH]c2ccccc23)cc1OC`, the IC50 with A549 [1] was < 10000 nM.

Turning to `COc1ccc(C(=O)/C=C/c2cc3c([nH]c4ccccc43)c(-c3ccc(F)cc3)n2)cc1`, the IC50 in the test on A549 [1] is < 10000 nM.

Take `COc1cc(-c2nc(/C=C/C(=O)c3ccc([N+](=O)[O-])cc3)cc3c2[nH]c2ccccc23)cc(OC)c1OC`: the IC50 with A549 [1] is < 10000 nM.

Turning to `Nc1ccc(C(=O)/C=C/c2cc3c([nH]c4ccccc43)c(-c3ccc(F)cc3)n2)cc1`, the IC50 with A549 [1] is < 10000 nM.

`CC(=O)N1N=C(c2ccc[nH]2)CC1c1cn(-c2ccccc2)nc1-c1cc2ccccc2o1` (stereo unspecified) came in with a 50% growth inhibitory concentration (GI50) in test [2] of 1000 to 2710 nM.

Take `Cc1cc(=O)oc2cc(Oc3nc(-c4ccccc4)cn4c(-c5ccccc5)cnc34)ccc12`: the values for the inhibition of growth at 10 µM in the test with A498 and in the test on MDA-MB-231 were 90% and 93%, respectively.

Regarding `COc1cc(-c2nc(/C=C/C(=O)c3ccc(F)cc3)cc3c2[nH]c2ccccc23)cc(OC)c1OC`, the IC50 in the test with A549 [1] is < 10000 nM.

For the molecule `COc1ccc(Cn2cc(C(=O)c3cn(-c4ccccc4)nc3-c3ccc(Cl)cc3)nn2)cc1OC`, the IC50 in the test on HT-29 [3] stood at 2420 nM; with PC-3, 3710 nM; in the test on A549 [4], 1930 nM; in the test with U-87 MG, 860 nM.

Consider `CC[C@]1(O)C[C@H]2CN(CCc3c([nH]c4ccccc34)[C@@](C(=O)OC)(c3cc4c(cc3OC)N(C=O)[C@H]3[C@@](O)(C(=O)OC)[C@H](OC(C)=O)[C@]5(CC)C=CCN6CC[C@]43[C@@H]65)C2)C1` [VINCRISTINE], for which, in the test with KB, the IC50 is 0.46 µg/mL (≈ 0.558 µM).

As to `O=C1CSC(N2N=C(c3ccncc3)CC2c2ccc(Br)cc2)=N1` (stereo unspecified), the IC50 in [5] turned out to be 9 nM; in the test on B16-F10 it was 90 nM; with HeLa [6], 290 nM; with MCF7 [7] it was 560 nM.

Take `COc1ccc(Cn2cc(C(=O)c3cccnc3Nc3ccc(F)cc3)nn2)cc1OC`: the IC50 in the test with HT-29 [8] is 3700 nM; in the test with DU-145, 3100 nM; in the test on A549 [9], 4100 nM; in the test with HEK293 it was 64300 nM.

Regarding `COc1ccc(C(=O)/C=C/c2cc3c([nH]c4ccccc43)c(-c3cc(OC)c(OC)c(OC)c3)n2)cc1`, the IC50 in the test with A549 [1] is < 10000 nM.

As for `COc1ccc(Nc2ncccc2C(=O)/C=C/Nc2ccc3[nH]ccc3c2)cc1`, the IC50 in the test with HeLa [6], in the test with MCF7 [7], with A549 [9] and in the test on HCT-116 was 510 to 1290 nM in each case.

`COc1ccc(C(=O)/C=C/c2cc3c([nH]c4ccccc43)c(-c3ccc(F)c(OC)c3)n2)cc1`: the IC50 with A549 [1] was < 10000 nM.

As to `COc1ccc(Cc2nnc(COc3ncnc4ccccc34)o2)cc1OC`, the IC50 in the test on MCF7 [10] was 230 nM; in the test with A549 [11], 380 nM; in the test with HeLa [12] it was 320 nM.

Turning to `COc1ccc(-c2nn(-c3ccccc3)cc2C(=O)c2cn(Cc3ccc(OC)c(OC)c3)nn2)cc1`, the IC50 in the test with HT-29 [3] amounted to 1780 nM; in the test with PC-3 it was 3520 nM; in the test with A549 [4], 2240 nM; in the test with U-87 MG, 970 nM.

Consider `O=C(c1ccccc1)c1ccc2[nH]c(-c3c4ccccc4cc4ccccc34)nc2c1`, for which the values for the IC50 with MCF7 [13] and with HL-60 were 16200 nM and 15200 nM, respectively.

Regarding `COc1cc(-c2nc(/C=C/C(=O)c3ccc(N)cc3)cc3c2[nH]c2ccccc23)cc(OC)c1OC`, in the test with A549 [1], the IC50 is < 10000 nM.
